Earlier results in US20230228656A1, “Functionalized Blood Sampling Device and Method for PEth Measurement” (CAPITAINER AB, priority 2020, published 2023).

System: PLD
Settings: literature assessment; considered unsuitable for clinical use; cited from earlier work

Row | SMILES | potency as PLD inhibitor
1 | O=C(NCCN1CCC(n2c(=O)[nH]c3ccccc32)CC1)c1cc2cc(F)ccc2[nH]1 [FIPI, 5-fluoro-2-indolyl-deschlorohalopemide] | low potency
2 | O=C(NCCN1CCC(n2c(=O)[nH]c3cc(Cl)ccc32)CC1)c1ccc(F)cc1 [halopemide] | low potency
